# Assay results: PMC6332448, “SAR Studies Leading to the Identification of a Novel Series of Metallo-β-lactamase Inhibitors for the Treatment of Carbapenem-Resistant Enterobacteriaceae Infections That Display Efficacy in an Animal Infection Model” (ACS Infectious Diseases, 2018)
# Legend:
# [1] = system: NDM-1-producing Escherichia coli (DH5α/pLBII-NDM-1); experiment: Imipenem MIC on laboratory strain; assay type: cell-based; settings: tested at concentrations up to 1 mM; data not shown
# [2] = biological target: Aeromonas hydrophila CphA MBL; parameters: method as in PMID 17307979; settings: read-out: Ki [inhibition constant] CphA; cited from earlier work
# VIM-2 = VIM-2 (Escherichia coli, UniProt Q5U7L7); experiment: biochemical
# IMP-1 = IMP-1 (Serratia marcescens, UniProt P52699); experiment: biochemical; assay type: biochemical
# VIM-1 = VIM-1 (Pseudomonas aeruginosa, UniProt A0A0F7KYQ8); experiment: biochemical; assay type: biochemical
# NDM-1 = NDM-1 (Klebsiella pneumoniae, UniProt C7C422); experiment: biochemical; assay type: biochemical; settings: NDM-1 IC50, 300 μM imipenem, 10 mM HEPES pH 7.5, 25 °C; average of at least two independent assays
# NDM-1, sequence (C7C422 29-270, looked up, species assumed): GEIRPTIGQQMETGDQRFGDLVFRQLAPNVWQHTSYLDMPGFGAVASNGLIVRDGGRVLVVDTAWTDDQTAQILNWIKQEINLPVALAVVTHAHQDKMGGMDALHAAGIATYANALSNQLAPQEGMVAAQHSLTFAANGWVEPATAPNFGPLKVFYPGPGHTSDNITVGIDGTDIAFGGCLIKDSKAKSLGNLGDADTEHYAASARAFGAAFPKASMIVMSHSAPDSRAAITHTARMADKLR
# IMP-1, sequence (P52699 19-246, looked up, species assumed): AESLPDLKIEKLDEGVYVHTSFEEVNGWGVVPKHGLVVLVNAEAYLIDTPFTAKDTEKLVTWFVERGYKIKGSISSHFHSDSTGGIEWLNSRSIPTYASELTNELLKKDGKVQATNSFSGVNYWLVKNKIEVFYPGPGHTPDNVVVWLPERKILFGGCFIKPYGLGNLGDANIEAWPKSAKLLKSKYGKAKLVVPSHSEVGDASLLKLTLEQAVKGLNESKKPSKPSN
smiles,measurement,setting,value
"O=C(O)c1ccccn1 [Compound 1, pyridine-2-carboxylic acid, reference compound]",reduction of imipenem MIC,[1],no reduction
same,Ki,[2],6 µM
same,IC50,VIM-2,> 200 µM
same,IC50,IMP-1,> 200 µM
same,"inhibition of IMP-1, in words",IMP-1; tested up to 200 μM,no significant activity
same,IC50,VIM-1,> 200 µM
same,"inhibition of VIM-1, in words",VIM-1; tested up to 200 μM,no significant activity
same,IC50,NDM-1,17.1 µM
